Assay [1] has as its system test panelists. Nature of the assay: Round table qualitative assessment of quality of sweetness and undesirable attributes, scale of 1-10. Format: in vivo. The settings on record: for Quality of sweetness (higher better): scale 1-10, 10 = 5% sucrose, 1 = 500 ppm RebA; for Off taste (lower better): scale 1-10, 10 = 500 ppm RebA, 1 = 5% sucrose. As to the method: Round table evaluations were performed with 7 test panelists. Equal sweet 5 SEV concentrations in neutral pH water were made for Thaumatin II (purity greater than 90%), Rebaudioside A, and Rebaudioside M. These equal sweet solutions were also mixed at 50% of Thaumatin II and 50% Reb M or RebA and compared to the individual components. All solutions were coded and blinded from panelists. Panelists were asked to provide a qualitative assessment on a scale of 1-10 of the quality of sweetness (10 being the highest quality of sweetness) and undesirable attributes (10 being most undesirable) of each solution using a 5% sucrose and 500 ppm RebA solutions as controls. For the quality of sweetness, the score 10 was assigned to 5% sucrose. Vice versa, the score 1 was assigned to and 500 ppm RebA. For undesirable attributes, the scores 10 and 1 were assigned to 500 ppm RebA and 5% sucrose, respectively.

The test system of assay [2] is test panelists. Nature of the assay: Round table evaluation of sweetness intensity (SEV) against sucrose reference samples. Format: in vivo. The settings on record: 7 panelists, mean. As for the experimental part:
Round table evaluations were performed with 7 test panelists. Equal sweet 5 SEV concentrations in neutral pH water were made for Thaumatin II (purity greater than 90%), Rebaudioside A, and Rebaudioside M. These equal sweet solutions were also mixed at 50% of Thaumatin II and 50% Reb M or RebA and compared to the individual components. The components of the test compositions are described in the below tables. The mixed compositions were calculated using the Beidler mixture equation for the sweeteners. The Beidler mixture equation for sweeteners is as follows: [formula] The concentration of each component in the mixture in ppm is divided by SEV (c/R) and is plotted against concentration, c. The slope of the linear regression is the maximum SEV (Rmax). The y-intercept of the linear regression multiplied by Rmax is the half-maximal sweetness concentration, 1/K. Rmax and 1/K are the two parameters used in the Beidler equation. Mixtures were tasted in comparison to reference samples for the panelists to determine SEV values. References samples were 3%, 4%, 5%, 6%, 7%, and 8% sucrose in neutral pH water. The test samples were served in 2 ounce soufflé cups (approximately 60 ml) coded with 3-digit codes at room temperature. A two minute wait period between samples was enforced. Water and unsalted crackers was available for the panelists to clear their palates before and during testing. Results were collected for calculating approximate SEV level of each test sample.

Take `C=C1C[C@@]23CC[C@H]4[C@@](C)(CCC[C@@]4(C)C(=O)O[C@@H]4O[C@H](CO)[C@@H](O)[C@H](O)[C@H]4O)[C@@H]2CC[C@]1(O[C@@H]1O[C@H](CO)[C@@H](O)[C@H](O[C@@H]2O[C@H](CO)[C@@H](O)[C@H](O)[C@H]2O)[C@H]1O[C@@H]1O[C@H](CO)[C@@H](O)[C@H](O)[C@H]1O)C3` [Rebaudioside A]: in the assay with test panelists [1] (260 ppm in neutral pH water), the “Quality of sweetness (higher better)” value is recorded as 5.6 and the “Off taste (lower better)” value was 6.7. In the assay with test panelists [2] (260 ppm in neutral pH water), the “Sweetness intensity determined, SEV” value stood at 4.8 SEV.

With `C=C1C[C@@]23CC[C@H]4[C@@](C)(CCC[C@@]4(C)C(=O)O[C@@H]4O[C@H](CO)[C@@H](O)[C@H](O[C@@H]5O[C@H](CO)[C@@H](O)[C@H](O)[C@H]5O)[C@H]4O[C@@H]4O[C@H](CO)[C@@H](O)[C@H](O)[C@H]4O)[C@@H]2CC[C@]1(O[C@@H]1O[C@H](CO)[C@@H](O)[C@H](O[C@@H]2O[C@H](CO)[C@@H](O)[C@H](O)[C@H]2O)[C@H]1O[C@@H]1O[C@H](CO)[C@@H](O)[C@H](O)[C@H]1O)C3` [Rebaudioside M], in the assay with test panelists [1] (155 ppm in neutral pH water), the “Quality of sweetness (higher better)” value is 8.8 and the “Off taste (lower better)” value worked out at 2.5. Moreover, the “Quality of sweetness and off taste, in words” value with test panelists [1] (equal sweet 5 SEV solutions and their 50%/50% mixtures in neutral pH water) was “very mild artificial off taste”. Further, in the assay with test panelists [2] (155 ppm in neutral pH water), the “Sweetness intensity determined, SEV” value was 5.3 SEV.

B1: Thaumatin II: oligopeptide or protein of SEQ ID NO: 2; recombinant, purity greater than 90%, purified from transgenic Nicotiana tabacum plants (protein, listed as Thaumatococcus daniellii)
chain: ATFEIVNRCSYTVWAAASKGDAALDAGGRQLNSGESWTINVEPGTKGGKIWARTDCYFDDSGRGICRTGDCGGLLQCKRFGRPPTTLAEFSLNQYGKDYIDISNIKGFNVPMDFSPTTRGCRGVRCAADIVGQCPAKLKAPGGGCNDACTVFQTSEYCCTTGKCGPTEYSRFFKRLCPDAFSYVLDKPTTVTCPGSSNYRVTFCPTA
Regarding B1, in the assay on test panelists [1] (7 ppm in neutral pH water), the “Quality of sweetness (higher better)” value was found to be 6.5 and the “Off taste (lower better)” value came out at 4.7. In the assay with test panelists [2] (7 ppm in neutral pH water), the “Sweetness intensity determined, SEV” value worked out at 4.6 SEV.
